Counter-ions that a name gives are not always drawn.
Key:
[1] = system: epithelial sodium channel (ENaC); test: TEER assay, chronic or acute treatment, Non-CF Polarized Human Lobar Bronchial Epithelial Cells; format: cell-based; design: RTE Before Amil / RTE After Amil: unit not given here; conditions: for Delta RTE / RTE After Amil / RTE Before Amil: chronic treatment (overnight)
Method: Primary cultures of CF delF508 or non-CF HBE cells are seeded onto permeable filter supports and grown for 12-14 days for a significant RTE to be measured for TEER assays.
When the ENaC is active under basal conditions (at least in part due to protease cleavage inside the cell or at the apical membrane), there is a finite RTE that is affected by the Na+ current flowing through ENaC heterotrimers (αβγ or δβγ).

[2] = target: T1, Furin (108-574-Tev-Flag-His) enzyme (Homo sapiens, UniProt P09958); test: Furin enzyme assay; format: biochemical
T1 construct: Furin (108-574-Tev-Flag-His) enzyme was expressed and purified from CHO cells; TEV cleavage site (C); FLAG (C); His (C); made in house; host or cells: CHO cells
T1 sequence (P09958 108-574): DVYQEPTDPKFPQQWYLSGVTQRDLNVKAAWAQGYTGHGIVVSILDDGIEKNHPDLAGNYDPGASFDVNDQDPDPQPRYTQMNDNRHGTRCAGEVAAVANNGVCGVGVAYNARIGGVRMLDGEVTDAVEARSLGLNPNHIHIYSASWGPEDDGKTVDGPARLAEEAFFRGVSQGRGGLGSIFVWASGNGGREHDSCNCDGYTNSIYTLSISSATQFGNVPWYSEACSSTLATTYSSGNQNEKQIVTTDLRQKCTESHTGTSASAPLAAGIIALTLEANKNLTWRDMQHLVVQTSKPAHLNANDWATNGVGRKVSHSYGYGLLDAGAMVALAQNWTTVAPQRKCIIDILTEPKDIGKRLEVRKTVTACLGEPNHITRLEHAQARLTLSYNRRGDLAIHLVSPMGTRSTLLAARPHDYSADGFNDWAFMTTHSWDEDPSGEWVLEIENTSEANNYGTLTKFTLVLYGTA
Summary of the method: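 Compounds ran as 11-point threefold dilutions (0.00017–10 μM final) against 40 pM furin, purified from CHO cells, for 2 h at room temperature. Buffer: 100 mM HEPES pH7.5 with 1 mM CaCl2 and 0.005% Triton X-100. Envision readout. Four-parameter curve gives pXC50.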

[3] = target: T2, furin (endogenous protease) in U20S cells (Homo sapiens, UniProt P09958); test: Furin cell-based assay (image-based, Golgi-targeted GFP with BMP10 furin/PCSK cleavage site); conditions: 24-hour incubation, read-out: furin golgi cell pXC50 (converted);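 further: Read-out is mean GFP fluorescence of Golgi puncta per cell by high-content imaging, retained when furin inhibited, over an eleven-point 0.00017–10 µM series, four-parameter fit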
T2 construct: the endogenous protease cleaves GFP; endogenous in cells; host or cells: U2OS cells transduced with a BacMam reporter
T2 sequence (P09958 108-794): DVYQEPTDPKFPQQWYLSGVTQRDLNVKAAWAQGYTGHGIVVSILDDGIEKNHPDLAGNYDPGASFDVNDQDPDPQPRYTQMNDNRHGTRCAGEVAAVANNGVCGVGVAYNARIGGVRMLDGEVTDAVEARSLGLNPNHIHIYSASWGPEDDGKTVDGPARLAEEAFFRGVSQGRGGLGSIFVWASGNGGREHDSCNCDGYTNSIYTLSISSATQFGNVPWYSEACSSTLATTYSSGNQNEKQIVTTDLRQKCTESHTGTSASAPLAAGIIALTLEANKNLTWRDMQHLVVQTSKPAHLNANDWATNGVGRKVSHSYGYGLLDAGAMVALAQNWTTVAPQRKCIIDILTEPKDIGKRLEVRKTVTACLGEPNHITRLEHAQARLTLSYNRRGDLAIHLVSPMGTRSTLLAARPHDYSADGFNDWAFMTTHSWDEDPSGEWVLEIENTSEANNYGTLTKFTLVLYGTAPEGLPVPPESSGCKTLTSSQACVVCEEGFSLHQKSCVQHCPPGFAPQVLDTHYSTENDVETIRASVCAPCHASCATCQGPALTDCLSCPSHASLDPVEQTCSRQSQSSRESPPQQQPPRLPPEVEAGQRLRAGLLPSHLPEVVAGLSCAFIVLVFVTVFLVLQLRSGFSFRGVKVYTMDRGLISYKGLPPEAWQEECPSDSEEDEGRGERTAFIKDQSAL

[4] = acute treatment, 3 μM thru 50 μM

Compound	furin enzyme pIC50 [2]	EC50 [3] [nM]	also measured
CN(C)C(=O)COC(=O)Cc1ccc(OC(=O)c2ccc(NC(=N)N)cc2)cc1 [Camostat]	–	–	Delta RTE after Amil [1, 4]: +15 ± 2; Delta RTE after Volume Additions [1, 4]: +82 ± 4; inhibition of amiloride-sensitive RTE delta (remaining ENaC activity) ([1]; acute treatment, tested at much higher concentrations than Example 11): more strongly; effect on the amiloride-sensitive RTE delta ([1]; chronic overnight treatment, 50 μM, P<0.05): equivalent inhibitory effect; Delta RTE ([1]; 3 μM): +172 ± 20; RTE After Amil ([1]; 3 μM): 615 ± 26; RTE Before Amil ([1]; 3 μM): 443 ± 6; Delta RTE ([1]; 10 μM): +119 ± 1; RTE After Amil ([1]; 10 μM): 506 ± 10; RTE Before Amil ([1]; 10 μM): 387 ± 11; Delta RTE ([1]; 30 μM): +163 ± 8; RTE After Amil ([1]; 30 μM): 635 ± 13; RTE Before Amil ([1]; 30 μM): 472 ± 6; Delta RTE ([1]; 50 μM): +98 ± 2; RTE After Amil ([1]; 50 μM): 446 ± 3; RTE Before Amil ([1]; 50 μM): 348 ± 4
CNC(=O)NCC1CCN(Cc2cc(Oc3cnc(N4CCN(C[C@@H](C)O)CC4)nc3)nc(-c3cc(Cl)cc(Cl)c3)c2)CC1 [Example 310, (R)-1-((1-((2-(3,5-dichlorophenyl)-6-((2-(4-(2-hydroxypropyl)piperazin-1-yl)pyrimidin-5-yl)oxy)pyridin-4-yl)methyl)piperidin-4-yl)methyl)-3-methylurea]	9.6	3.98	–
CC(CC1CCN(Cc2cc(Oc3ccc(N4CCN(C)CC4)nc3)nc(-c3cc(Cl)cc(Cl)c3)c2)CC1)C(=O)O (stereo not drawn) [Example 213, 3-(1-((2-(3,5-dichlorophenyl)-6-((6-(4-methylpiperazin-1-yl)pyridin-3-yl)oxy)pyridin-4-yl)methyl)piperidin-4-yl)-2-methylpropanoic acid]	8.9	25.1	–
CC(=O)NCC1CCN(Cc2cc(Oc3ccc(N4CCN(CCOC(N)=O)CC4)nc3)nc(-c3cc(Cl)cc(Cl)c3)c2)CC1 [Example 31, 2-(4-(5-((4-((4-(Acetamidomethyl)piperidin-1-yl)methyl)-6-(3,5-dichlorophenyl)pyridin-2-yl)oxy)pyridin-2-yl)piperazin-1-yl)ethyl carbamate]	9.1	6.31	–
O=S(=O)(O)CCC1CCN(Cc2cc(Oc3ccc(N4CCNCC4)nc3)nc(-c3cc(Cl)cc(Cl)c3)c2)CC1 [Example 7, 2-(1-((2-(3,5-Dichlorophenyl)-6-((6-(piperazin-1-yl)pyridin-3-yl)oxy)pyridin-4-yl)methyl)piperidin-4-yl)ethanesulfonic acid, 4 hydrochloride]	9.2	79.4	–
CS(=O)(=O)CCCN1CCN(c2ncc(Oc3cc(CN4CCC(CCC(=O)O)CC4)cc(-c4cc(Cl)cc(Cl)c4)n3)cn2)CC1 [Example 272, 3-(1-((2-(3,5-dichlorophenyl)-6-((2-(4-(3-(methylsulfonyl)propyl)piperazin-1-yl)pyrimidin-5-yl)oxy)pyridin-4-yl)methyl)piperidin-4-yl)propanoic acid]	9.8	31.6	–
CC(=O)NCC1CCN(Cc2cc(Oc3ccc(N4CCN(CCS(=O)(=O)O)CC4)nc3)nc(-c3cc(Cl)cc(Cl)c3)c2)CC1 [Example 287, 2-(4-(5-((4-((4-(acetamidomethyl)piperidin-1-yl)methyl)-6-(3,5-dichlorophenyl)pyridin-2-yl)oxy)pyridin-2-yl)piperazin-1-yl)ethanesulfonic acid]	–	631	IC50 ([2]; read-out: furin enzyme pIC50 (converted)): 2 nM
CC(CC1CCN(Cc2cc(Oc3cnc(N4CCCN(C)CC4)cn3)nc(-c3cc(Cl)cc(Cl)c3)c2)CC1)C(=O)O (stereo not drawn) [Example 351, 3-(1-((2-(3,5-dichlorophenyl)-6-((5-(4-methyl-1,4-diazepan-1-yl)pyrazin-2-yl)oxy)pyridin-4-yl)methyl)piperidin-4-yl)-2-methylpropanoic acid]	9.4	25.1	–
CS(=O)(=O)CC1CCN(Cc2cc(Oc3ccc(N4CCN(CCC(=O)O)CC4)nc3)nc(-c3cc(Cl)cc(Cl)c3)c2)CC1 [Example 39, 3-(4-(5-((6-(3,5-Dichlorophenyl)-4-((4-((methylsulfonyl)methyl)piperidin-1-yl)methyl)pyridin-2-yl)oxy)pyridin-2-yl)piperazin-1-yl)propanoic acid]	8.3	79.4	–
CC(=O)NCC1CCN(Cc2cc(Oc3cnc(N4CCN(CCC(N)=O)CC4)nc3)nc(-c3cc(F)c(F)c(Cl)c3)c2)CC1 [Example 273, 3-(4-(5-((4-((4-(acetamidomethyl)piperidin-1-yl)methyl)-6-(3-chloro-4,5-difluorophenyl)pyridin-2-yl)oxy)pyrimidin-2-yl)piperazin-1-yl)propanamide]	8.2	31.6	–
CC(=O)NCC1CCN(Cc2cc(Oc3cnc(N4CCNCC4)cn3)nc(-c3cc(Cl)cc(Cl)c3)c2)CC1 [Example 109, N-((1-((2-(3,5-Dichlorophenyl)-6-((5-(piperazin-1-yl)pyrazin-2-yl)oxy)pyridin-4-yl)methyl)piperidin-4-yl)methyl)acetamide]	9.6	15.8	–
CN1C2CCC1CN(c1ncc(Oc3cc(CN4CCC(CC(=O)O)CC4)cc(-c4cc(Cl)cc(Cl)c4)n3)cn1)C2 [Example 398, 2-(1-((2-(3,5-dichlorophenyl)-6-((2-(8-methyl-3,8-diazabicyclo[3.2.1]octan-3-yl)pyrimidin-5-yl)oxy)pyridin-4-yl)methyl)piperidin-4-yl)acetic acid]	8.9	6.31	–
COC(=O)NCC1CCN(Cc2cc(Oc3cnc(N4CCN(CCCS(C)(=O)=O)CC4)nc3)nc(-c3cc(Cl)cc(Cl)c3)c2)CC1 [Example 223, methyl ((1-((2-(3,5-dichlorophenyl)-6-((2-(4-(3-(methylsulfonyl)propyl)piperazin-1-yl)pyrimidin-5-yl)oxy)pyridin-4-yl)methyl)piperidin-4-yl)methyl)carbamate]	9.8	5.01	–
CN1CCN(c2ncc(Oc3cc(CN4CCO[C@H](CO)CC4)cc(-c4cc(Cl)cc(Cl)c4)n3)cn2)CC1 [Example 330, (S)-(4-((2-(3,5-Dichlorophenyl)-6-((2-(4-methylpiperazin-1-yl)pyrimidin-5-yl)oxy)pyridin-4-yl)methyl)-1,4-oxazepan-7-yl)methanol, 4 hydrochloride]	8	10	–

Source: patent publication US11773078B2, “Furin inhibitors” (Glaxosmithkline Intellectual Property Development Limited, priority 2018, dated 2023)
